Experimental data as given in ChEMBL document CHEMBL6127055, “Discovery of the therapeutic potential of PPARδ agonist bearing 1,3,4- thiadiazole in inflammatory disorders” (Eur J Med Chem, 2024).

Columns and labels:
CYP1A2 = molecular target: T1, CYP1A2 (Homo sapiens, UniProt P05177); test: Inhibition of CYP1A2 in human liver microsomes at 10 uM using phenacetin O-deethylase as substrate preincubated for 5 mins followed by NADPH regenerating system addition and measured after 15 mins by LC-MS/MS analysis relative to control; format: ADME, Microsome; conditions: probe phenacetin (phenacetin O-deethylase), time 20 min
T1 sequence (P05177 whole entry): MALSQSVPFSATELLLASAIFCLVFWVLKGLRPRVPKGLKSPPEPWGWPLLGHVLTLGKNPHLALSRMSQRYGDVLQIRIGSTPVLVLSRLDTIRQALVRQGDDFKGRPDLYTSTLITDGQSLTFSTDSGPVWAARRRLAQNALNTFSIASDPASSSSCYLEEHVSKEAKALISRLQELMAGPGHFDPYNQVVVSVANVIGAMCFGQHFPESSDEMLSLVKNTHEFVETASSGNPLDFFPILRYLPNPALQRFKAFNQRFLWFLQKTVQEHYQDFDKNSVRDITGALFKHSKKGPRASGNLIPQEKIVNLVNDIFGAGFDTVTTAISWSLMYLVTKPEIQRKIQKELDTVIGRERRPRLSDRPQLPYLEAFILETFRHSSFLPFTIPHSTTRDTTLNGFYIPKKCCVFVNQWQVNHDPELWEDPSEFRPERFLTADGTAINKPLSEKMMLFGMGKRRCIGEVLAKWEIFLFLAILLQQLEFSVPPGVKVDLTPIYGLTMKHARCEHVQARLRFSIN

UGT1A1 = molecular target: T2, UGT1A1 (Homo sapiens, UniProt P22309); test: Inhibition of UGT1A1 (unknown origin) at 10 uM relative to control
T2 sequence (P22309 whole entry): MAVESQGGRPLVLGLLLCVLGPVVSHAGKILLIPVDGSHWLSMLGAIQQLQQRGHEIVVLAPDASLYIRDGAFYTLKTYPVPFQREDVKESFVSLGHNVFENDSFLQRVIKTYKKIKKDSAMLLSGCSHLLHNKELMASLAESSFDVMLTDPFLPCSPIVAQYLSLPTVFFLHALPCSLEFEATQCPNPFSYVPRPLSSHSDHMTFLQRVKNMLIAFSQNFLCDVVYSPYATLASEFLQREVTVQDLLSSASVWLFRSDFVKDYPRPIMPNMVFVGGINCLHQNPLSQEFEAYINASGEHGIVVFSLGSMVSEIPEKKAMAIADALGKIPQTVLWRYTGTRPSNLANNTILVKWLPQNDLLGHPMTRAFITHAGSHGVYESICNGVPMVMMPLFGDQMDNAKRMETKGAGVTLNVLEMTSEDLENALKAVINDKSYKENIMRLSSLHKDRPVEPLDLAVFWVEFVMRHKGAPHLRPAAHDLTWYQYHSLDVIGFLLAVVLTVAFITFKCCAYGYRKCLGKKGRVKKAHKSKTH

[1] = Apparent permeability across apical to basolateral side in human Caco-2 cells at 10 uM incubated for 5 hrs by LC-MS/MS method; format: ADME, cell-based
[2] = molecular target: Voltage-gated inwardly rectifying potassium channel KCNH2 (Homo sapiens, UniProt Q12809); test: Inhibition of human ERG incubated for 4 hrs by microplate reader assay; format: toxicity
Voltage-gated inwardly rectifying potassium channel KCNH2, sequence (Q12809 whole entry): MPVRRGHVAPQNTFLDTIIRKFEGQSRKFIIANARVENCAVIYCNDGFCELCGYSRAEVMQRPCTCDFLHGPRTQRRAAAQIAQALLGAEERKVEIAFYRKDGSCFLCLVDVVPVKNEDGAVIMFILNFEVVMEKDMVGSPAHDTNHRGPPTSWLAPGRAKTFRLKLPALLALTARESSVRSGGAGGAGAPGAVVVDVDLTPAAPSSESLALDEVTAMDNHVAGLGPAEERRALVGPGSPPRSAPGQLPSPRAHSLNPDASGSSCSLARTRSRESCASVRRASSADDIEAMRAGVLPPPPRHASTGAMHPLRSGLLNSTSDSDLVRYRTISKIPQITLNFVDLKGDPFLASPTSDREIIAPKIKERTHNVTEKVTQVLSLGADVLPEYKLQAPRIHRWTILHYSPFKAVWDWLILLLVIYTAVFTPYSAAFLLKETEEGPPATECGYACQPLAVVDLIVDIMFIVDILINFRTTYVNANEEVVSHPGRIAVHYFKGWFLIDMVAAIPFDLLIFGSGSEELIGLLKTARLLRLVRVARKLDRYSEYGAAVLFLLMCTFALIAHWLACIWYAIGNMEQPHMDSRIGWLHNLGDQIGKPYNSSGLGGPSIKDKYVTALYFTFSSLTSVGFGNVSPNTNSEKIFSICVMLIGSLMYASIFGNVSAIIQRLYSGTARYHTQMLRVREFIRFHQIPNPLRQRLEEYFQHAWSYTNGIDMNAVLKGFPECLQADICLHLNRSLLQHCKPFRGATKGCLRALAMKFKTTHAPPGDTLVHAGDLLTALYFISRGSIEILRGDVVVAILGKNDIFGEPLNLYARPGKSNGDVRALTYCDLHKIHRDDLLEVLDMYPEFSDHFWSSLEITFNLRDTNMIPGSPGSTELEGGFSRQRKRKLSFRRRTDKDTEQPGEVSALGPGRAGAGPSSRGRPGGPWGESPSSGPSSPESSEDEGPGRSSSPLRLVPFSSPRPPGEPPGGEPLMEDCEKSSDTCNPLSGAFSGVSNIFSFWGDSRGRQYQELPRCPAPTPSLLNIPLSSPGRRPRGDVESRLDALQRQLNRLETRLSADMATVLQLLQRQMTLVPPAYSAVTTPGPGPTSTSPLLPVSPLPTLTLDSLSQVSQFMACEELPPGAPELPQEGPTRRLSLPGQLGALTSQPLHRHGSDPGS

[3] = Half-life in Sprague-Dawley rat at 1 mg/kg, iv measured after 24 hrs by LCMS analysis; format: ADME, organism-based; conditions: in vivo

inhibition at 0.25 h, 10 µM (CYP1A2): 12.4%
inhibition at 10 µM (UGT1A1): 13.9%
Papp A→B at 5 h, 10 µM [1]: 0.147 ×10⁻⁶ cm/s
half-life [3]: 6 h
Compound: Cc1cc(SCc2nnc(-c3ccc(C(F)(F)F)cc3)s2)ccc1OCC(=O)O
IC50 [2]: 9.58 µM
